Measurements taken from article PMC12198407, “Preclinical and first-in-human of purinostat mesylate, a novel selective HDAC I/IIb inhibitor, in relapsed/refractory multiple myeloma and lymphoma” (Signal Transduction and Targeted Therapy, 2025).
Like-named read-outs stand apart in the source and are kept apart here.

Columns and labels:
r/r DLBCL PDX = r/r DLBCL PDX mouse model; format: in vivo, mice; conditions: PM 10 mg/kg; Pola-BR per Table S9
Method: All animal studies were performed in accordance with the guidelines approved by the Institutional Animal Care and Use Committee of Sichuan University, Chengdu, China. Six- to seven-week-old female NOD-SCID mice were purchased from Beijing Vital River Laboratory Animal Technology Co., Ltd. (China). Mice received subcutaneous inoculation with 0.5 × 10^7 MM1S or RPMI-8226 cells, to establish xenograft models. Heterotopic PDX models were generated as previously described.[54] When tumors reached 150–250 mm^3, mice were treated with various compounds. PM and panobinostat were administered intravenously three times a week at 5 mg/kg in combination therapy. […] Tumor volume (tumor volume (mm^3) = π/6 × length × width^2) and body weights were measured every two days. At the end, tumor tissues were weighed, and antitumor activity was evaluated by the tumor inhibition rate = (1 − tumor weight of treatment group/tumor weight of vehicle group) × 100%.

[1] = tested on: BCR-ABL positive B-ALL PDX; assay: PDX model of clinical B-ALL patient; format: in vivo, NOD/SCID mice
Description: A clinical sample from a B-ALL patient was obtained, characterized by BCR-ABL positivity and relapse after first-line treatment.

CYP2B6 = molecular target: T1, CYP2B6 (Homo sapiens, UniProt P20813); assay: CYP inhibition, human liver microsomes; format: in vitro ADME
T1 construct: human liver microsomal cytochrome P450 isoenzymes; from tissue; host or cells: human liver microsomes
T1 sequence (P20813 whole entry): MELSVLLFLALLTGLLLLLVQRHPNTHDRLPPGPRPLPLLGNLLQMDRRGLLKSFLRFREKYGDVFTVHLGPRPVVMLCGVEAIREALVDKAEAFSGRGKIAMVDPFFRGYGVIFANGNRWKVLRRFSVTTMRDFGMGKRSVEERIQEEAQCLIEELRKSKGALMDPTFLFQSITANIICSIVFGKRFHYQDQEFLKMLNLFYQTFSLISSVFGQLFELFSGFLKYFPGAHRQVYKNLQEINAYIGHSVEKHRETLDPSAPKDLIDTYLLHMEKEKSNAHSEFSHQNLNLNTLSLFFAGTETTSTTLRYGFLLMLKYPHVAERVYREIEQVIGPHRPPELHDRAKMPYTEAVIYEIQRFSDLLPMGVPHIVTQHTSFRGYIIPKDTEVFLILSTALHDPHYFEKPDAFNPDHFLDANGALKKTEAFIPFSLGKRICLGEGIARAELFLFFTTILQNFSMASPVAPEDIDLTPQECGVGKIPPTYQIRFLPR

HUVEC = assay: Proliferation, MTT or Alamar Blue; format: cell-based; conditions: Homo sapiens, read-out: IC50, normal HUVEC cells
[2] = Acute toxicity test, intravenous; format: in vivo, rats
Method: The experimental design included low, medium, and high doses of 50, 100, and 200 mg/kg administered intravenously. In the medium and high-dose groups, symptoms observed included ear reddening, reduced activity, prone posture, rapid breathing, and deep gasping; in the high-dose group, additional signs included deep gasping, arched back, and weight loss.

[3] = tested on: human multiple myeloma RPMI-8226; format: in vivo
ARD = assay: Cell viability CCK8; format: cell-based; conditions: Homo sapiens, 72 h, no unit in table, read-out: Antiproliferative activity IC50
Method: (§1) PM, panobinostat, Pom and DXM were dissolved in DMSO and stored at -20°C freezer. Cells were seeded at a density of 1.0-3.0 × 10^4 cells/well/100 μL in 96-well plates. After overnight incubation, cells were treated with the drug-containing culture medium for 24, 48, or 72 hours, and cell viability was measured using CCK8 (Oriscience, Chengdu, China) at the indicated time points with Biotek Cytation 3 at a wavelength of 450 nm. The IC50 values were calculated using GraphPad Prism 9.4.1, and Calcusyn 2.0 software was employed to calculate the CI values.

NKYS = assay: Cell viability CCK8; format: cell-based; conditions: Homo sapiens, 72 h, no unit in table, read-out: Antiproliferative activity IC50
Method: as §1

RPMI-8226R = assay: Cell viability CCK8; format: cell-based; conditions: Homo sapiens, 72 h, no unit in table, read-out: Antiproliferative activity IC50
Method: as §1

OPM2 = assay: Cell viability CCK8; format: cell-based; conditions: Homo sapiens, OPM-2; OPM2, 72 h; no unit in table; read-out: Antiproliferative activity IC50
Method: as §1

Karpas299 = assay: Cell viability CCK8; format: cell-based; conditions: Homo sapiens, KARPAS-299; Karpas299, 72 h; no unit in table; read-out: Antiproliferative activity IC50
Method: as §1

RL = assay: Cell viability CCK8; format: cell-based; conditions: Homo sapiens, 72 h, no unit in table, read-out: Antiproliferative activity IC50
Method: as §1

Ramos = assay: Cell viability CCK8; format: cell-based; conditions: Homo sapiens, 72 h, no unit in table, read-out: Antiproliferative activity IC50
Method: as §1

MM1S = assay: Cell viability CCK8; format: cell-based; conditions: Homo sapiens, MM1.S, 72 h, no unit in table (b9: nM), read-out: Antiproliferative activity IC50
Method: as §1

TMD-8 = assay: Cell viability CCK8; format: cell-based; conditions: Homo sapiens, TMD8; TMD-8, 72 h; no unit in table; read-out: Antiproliferative activity IC50
Method: as §1

KMS-11 = assay: Cell viability CCK8; format: cell-based; conditions: Homo sapiens; KMS-11, 72 h; no unit in table; read-out: Antiproliferative activity IC50
Method: as §1

Daudi = assay: Cell viability CCK8; format: cell-based; conditions: Homo sapiens, 72 h, no unit in table, read-out: Antiproliferative activity IC50
Method: as §1

MM1R = assay: Cell viability CCK8; format: cell-based; conditions: Homo sapiens, MM.1R, 72 h, no unit in table, read-out: Antiproliferative activity IC50
Method: as §1

Raji = assay: Cell viability CCK8; format: cell-based; conditions: Homo sapiens, 72 h, no unit in table, read-out: Antiproliferative activity IC50
Method: as §1

RPMI-8226 = assay: Cell viability CCK8; format: cell-based; conditions: Homo sapiens; RPMI-8226, 72 h; no unit in table; read-out: Antiproliferative activity IC50
Method: as §1

HDAC9 = HDAC9 (Homo sapiens, UniProt Q9UKV0); assay: HDAC enzyme activity in vitro; format: biochemical
Chain of HDAC9 (Q9UKV0 whole entry): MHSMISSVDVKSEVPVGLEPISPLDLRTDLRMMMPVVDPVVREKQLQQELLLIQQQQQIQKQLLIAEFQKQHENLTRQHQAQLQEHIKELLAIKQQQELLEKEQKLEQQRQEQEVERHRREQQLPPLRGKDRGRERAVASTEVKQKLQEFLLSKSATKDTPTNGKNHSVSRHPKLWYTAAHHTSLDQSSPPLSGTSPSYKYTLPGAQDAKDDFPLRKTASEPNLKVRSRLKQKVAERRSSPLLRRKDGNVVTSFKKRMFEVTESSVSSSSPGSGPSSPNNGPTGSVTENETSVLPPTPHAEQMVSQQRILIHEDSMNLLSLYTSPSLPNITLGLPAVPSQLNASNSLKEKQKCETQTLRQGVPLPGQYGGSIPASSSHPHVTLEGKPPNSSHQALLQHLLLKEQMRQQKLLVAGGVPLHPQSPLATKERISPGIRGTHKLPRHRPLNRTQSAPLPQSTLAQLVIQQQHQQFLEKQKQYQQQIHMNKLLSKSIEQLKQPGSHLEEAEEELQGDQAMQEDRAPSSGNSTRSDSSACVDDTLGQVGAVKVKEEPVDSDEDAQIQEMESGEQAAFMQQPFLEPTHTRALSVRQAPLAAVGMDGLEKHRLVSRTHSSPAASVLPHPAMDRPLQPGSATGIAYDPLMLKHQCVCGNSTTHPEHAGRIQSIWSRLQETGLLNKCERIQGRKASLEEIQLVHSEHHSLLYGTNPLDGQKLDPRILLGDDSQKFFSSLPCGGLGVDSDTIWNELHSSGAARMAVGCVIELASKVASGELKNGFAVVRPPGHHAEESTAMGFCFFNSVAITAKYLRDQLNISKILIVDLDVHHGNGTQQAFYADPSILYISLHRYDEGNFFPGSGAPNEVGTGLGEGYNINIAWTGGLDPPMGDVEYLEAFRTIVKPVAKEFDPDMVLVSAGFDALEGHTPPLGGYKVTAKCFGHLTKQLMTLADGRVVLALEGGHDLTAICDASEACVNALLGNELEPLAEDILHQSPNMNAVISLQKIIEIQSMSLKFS

[4] = tested on: c-MYC/KRAS12V transformed BaF3 cells; assay: Cell viability CCK8; format: cell-based
Method: as §1
Mice were weighed every two days. All data are represented as mean ± SEM.

[5] = Metabolites in dog plasma; format: in vivo, Beagle dogs; conditions: male and female dogs
Description: Four metabolites of Purinostat Mesylate were detected in plasma samples from both male and female dogs, namely M4 (MW = 636.66, unknown product), M8 (MW = 474.52, reduction product), M13 (MW = 505.54, methylation product), and M16 (MW = 475.50, hydrolysis product). The primary metabolic pathways involved hydrolysis, methylation, and reduction, with no significant gender differences observed. The parent compound, Purinostat Mesylate, accounted for more than 35% of the UV absorption peak area in the plasma samples from both male and female dogs, indicating it is one of the major components. Purinostat Mesylate is primarily metabolized in the plasma of male and female dogs through hydrolysis, methylation, and reduction pathways. A possible metabolic pathway structure diagram is shown below: […]

HDAC5 = HDAC5 (Homo sapiens, UniProt Q9UQL6); assay: HDAC enzyme activity in vitro; format: biochemical
Chain of HDAC5 (Q9UQL6 whole entry): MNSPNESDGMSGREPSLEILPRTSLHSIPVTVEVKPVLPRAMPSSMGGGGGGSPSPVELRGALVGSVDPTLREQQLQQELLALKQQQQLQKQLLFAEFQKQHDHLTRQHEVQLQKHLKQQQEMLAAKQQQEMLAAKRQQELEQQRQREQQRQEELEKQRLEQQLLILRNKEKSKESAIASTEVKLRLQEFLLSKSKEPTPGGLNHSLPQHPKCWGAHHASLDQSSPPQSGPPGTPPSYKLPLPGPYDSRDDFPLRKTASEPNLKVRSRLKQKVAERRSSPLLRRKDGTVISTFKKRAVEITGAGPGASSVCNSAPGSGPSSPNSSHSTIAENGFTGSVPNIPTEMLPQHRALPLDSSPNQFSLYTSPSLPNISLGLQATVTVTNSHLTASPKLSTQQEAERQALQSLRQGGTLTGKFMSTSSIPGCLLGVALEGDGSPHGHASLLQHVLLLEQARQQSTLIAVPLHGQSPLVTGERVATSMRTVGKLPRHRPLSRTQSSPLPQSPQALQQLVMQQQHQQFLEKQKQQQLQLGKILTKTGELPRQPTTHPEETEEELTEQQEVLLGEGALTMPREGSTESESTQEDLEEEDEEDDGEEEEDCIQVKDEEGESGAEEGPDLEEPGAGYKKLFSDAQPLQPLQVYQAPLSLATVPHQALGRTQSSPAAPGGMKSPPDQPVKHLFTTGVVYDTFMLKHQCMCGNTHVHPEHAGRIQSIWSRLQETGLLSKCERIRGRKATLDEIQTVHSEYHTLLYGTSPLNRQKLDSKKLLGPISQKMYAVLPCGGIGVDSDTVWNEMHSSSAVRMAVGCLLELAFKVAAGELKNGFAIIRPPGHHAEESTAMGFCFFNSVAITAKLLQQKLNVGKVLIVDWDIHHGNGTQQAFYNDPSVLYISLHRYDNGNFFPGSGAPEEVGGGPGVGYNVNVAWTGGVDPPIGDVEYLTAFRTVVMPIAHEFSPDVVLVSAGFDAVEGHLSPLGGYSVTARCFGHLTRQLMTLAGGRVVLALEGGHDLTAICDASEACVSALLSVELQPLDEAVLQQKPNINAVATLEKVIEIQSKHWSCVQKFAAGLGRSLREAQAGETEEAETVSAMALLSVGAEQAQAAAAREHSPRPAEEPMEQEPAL

CN(Cc1nc2c(N3CCOCC3)nc(-c3ccc(N)cc3)nc2n1C)c1ncc(C(=O)NO)cn1.CS(=O)(=O)O [PM, 2-(((2-(4-Aminophenyl)-9-methyl-6-(4-morpholinyl)-9H-purine-8-yl)methyl)methylamino)-N-hydroxy-5-pyrimidine-carboxamide Mesylate]
tumor inhibition rate (r/r DLBCL PDX): 77.14%
median survival time ([1]; 2.5 mg/kg, solvent control 21 days): 66 days
median survival time ([1]; 10 mg/kg): 73 days
IC50 (CYP2B6): > 10000 nM
IC50 (HUVEC): 68.9 nM
MTD ([2]; both sexes, rat, in vivo, iv, single i.v., read-out: maximum tolerated dose (MTD)): 100 mg/kg
mortality ([2]; high dose 200 mg/kg, days 1 to 6): Six out of ten
T/C ([3]; 1.25 mg/kg): 13.9%
tumor inhibition rate ([3]; 1.25 mg/kg): 81.61%
T/C ([3]; 2.5 mg/kg): 6.6%
tumor inhibition rate ([3]; 2.5 mg/kg): 92.33%
T/C ([3]; 5 mg/kg): 2.7%
tumor inhibition rate ([3]; 5 mg/kg): 97.77%
T/C ([3]; 10 mg/kg): 2.2%
tumor inhibition rate ([3]; 10 mg/kg): 97.77%
median survival time ([3]; satellite groups, PM 5 mg/kg alone or combined, control regimens): 67.5 days
IC50 (ARD): 0.42 ± 0.04 nM
IC50 (NKYS): 0.77 ± 0.07 nM
IC50 (RPMI-8226R): 2.02 ± 0.3 nM
IC50 (OPM2): 1.78 ± 0.13 nM
IC50 (Karpas299): 1.16 ± 0.14 nM
IC50 (RL): 1.27 ± 0.14 nM
IC50 (Ramos): 1.24 ± 0.47 nM
IC50 (MM1S): 0.47 ± 0.02 nM
IC50 (TMD-8): 0.99 ± 0.14 nM
IC50 (KMS-11): 1.99 ± 0.21 nM
IC50 (Daudi): 0.73 ± 0.51 nM
IC50 (MM1R): 0.33 ± 0.01 nM
IC50 (Raji): 1.96 ± 0.18 nM
IC50 (RPMI-8226): 2.42 ± 0.4 nM
IC50 (HDAC9): 622 nM
superior antiproliferation activity compared to panobinostat [4]: ~4 fold
share of UV absorption peak area in plasma samples [5]: more than 35%
IC50 (HDAC5): 426 nM
